{"source": "patent US20030158162A1", "about": "“Methods of treating ophthalmic disorders with epoxy-steroidal aldosterone receptor antagonists” (priority 2001, published 2003)", "origin": "cited, not measured here", "details": "Klin Monatsbl Augenheilkd 176(3):445-6 (1980)", "data": [{"smiles": "CC(=O)S[C@@H]1CC2=CC(=O)CC[C@]2(C)[C@H]2CC[C@@]3(C)[C@@H](CC[C@@]34CCC(=O)O4)[C@H]12", "note": "[Spironolactone]", "values": [{"measurement": "effect on IOP in glaucoma patients", "result": "lower IOP"}]}]}
